Data as given in PubChem BioAssay AID2060353 (Molecular Pharmacology Branch, DTP, NCI, 2025).
Where “and” joins values, the source holds several entries; their conditions need not be identical. Identical values can stand only once. Blank lines part the entries; values can stand above or below the compound they belong to.

Tested on: 521955-158-R2-J5-PDC spheroids with stroma, growth inhibition
Assay: Anticancer human tumor 521955-158-R2-J5-PDC patient-derived pancreatic carcinoma cell line growth inhibition [TAK]
Settings: for viability, T/C: stronger effect = lower value
Text: Combinatorial screen of targeted agents with TAK-243 and ipatasertib in multi-cell type tumor spheroids
A high-throughput screen of multi-cell type tumor spheroids was designed to identify active combinations of targeted small molecules and TAK-243 or ipatasertib. Complex spheroids include a stromal component modeled by human endothelial cells (HUVEC) and fibroblasts modeled by human mesenchymal stem cells (MSCs). The concentration ranges selected for each drug and investigational agent were based upon clinically achievable concentrations if the clinical Cmax of the agent was known.
Compounds. The drugs and investigational agents: TAK-243 (785004), ipatasertib (767898), everolimus (733504), selumetinib (741078), bortezomib (756655), trametinib (758246), ixazomib (758254), vemurafenib (761431), dabrafenib (764134), sapanisertib (764658), alpelisib (765974), and copanlisib (816437), were obtained from the National Cancer Institute (NCI) Developmental Therapeutics Program Chemical Repository. The FDA-approved anticancer drug set is available from the NCI Developmental Therapeutics Program. […] The stock solutions were prepared in dimethyl sulfoxide (DMSO, Sigma-Aldrich, St. Louis, MO, cat. D2650) at 800-fold the tested concentration and stored at -70 degrees C prior to their use. All drugs and investigational agents were tested over a range starting from a high concentration at or near the clinical Cmax and decreasing in half-log increments. If the clinical Cmax for an agent had not been determined, the highest concentration tested was 10 microM.
NCI60 Cell Culture. NCI60 cell lines were obtained from the NCI Developmental Therapeutics Program Tumor Repository. For each lot of cells, the Repository performed Applied Biosystems AmpFLSTR Identifiler testing with PCR amplification to confirm consistency with the published Identifier STR profile for each cell line. Cells were kept in continuous culture for no more than 20 passages. The optimal seeding densities for each of the cell lines at each time point assessed were determined prior to performing the concentration response studies. Briefly, the NCI60 human tumor lines were grown as monolayers in RPMI 1640 medium supplemented with 10% FBS and 2 mmol/L L-glutamine.
An additional 2 lines were from the NCI60 cell line panel including melanomas, MALME-3M and SK-MEL-2. Pooled donor human umbilical vein endothelial cells (HUVEC, Lonza, cat. CC-2519) and human mesenchymal stem cells (hMSC, Lonza, cat. PT-2501) were purchased from Lonza (Walkersville, MD).
PDMR cell lines were grown in complete medium (DC medium): Dulbecco's modified Eagle's medium (DMEM)/F12 supplemented with 5% fetal bovine serum (FBS), 2 mM L-glutamine, 100 U/mL penicillin and 100 µg/ml streptomycin, 0.4 µg/ml hydrocortisone, 10 ng/ml epidermal growth factor (EGF) recombinant human protein, 24 µg/mL adenine, and 0.1 mg/mL primocin. During culture from frozen stock vials, PDMR cells were cultured in the same medium containing 10 µM Y-27632 (see Table 3). The PDCs were cultured in complete DMEM/F12 media without 10 microM Y-27632 dihydrochloride for at least two passages prior to the screen. The pooled donor HUVEC and hMSC were cultured in endothelial cell growth medium 2 (PromoCell, Heidelberg, Germany, cat. C-22011) and mesenchymal stem cell growth medium 2 (PromoCell, cat. C-28009), respectively. For all experiments, HUVEC and hMSC were used at passages </=5.
For the pre-screen, cell seeding densities were determined from a titration spanning the range from 5,000 to 313 cells per well. The mct-spheroids including 60% malignant cells, 25% HUVEC and 15% MSC dispensed as a mixture into U-bottom Ultra-Low Attachment 384-well plates (Corning, NY)
High-throughput Drug Combination Screening.
Prior to their inoculation into 384-well plates, malignant cells, HUVEC, and hMSC were removed from T flasks using TrypLE express (Thermo Fisher Scientific, cat. 12605036) and harvested by centrifugation for 5 min at 233 x g. […]

[1] = curve of first compound, second compound 0.3 µM
[2] = curve of first compound, second compound 0.949 µM
[3] = curve of first compound, second compound 3 µM
[4] = curve of first compound, second compound 9.49 µM
[5] = curve of first compound, second compound 30 µM
[6] = second compound 0.3 µM, first compound 0.000316 µM
[7] = second compound 0.3 µM, first compound 0.001 µM
[8] = second compound 0.3 µM, first compound 0.00316 µM
[9] = second compound 0.3 µM, first compound 0.01 µM
[10] = second compound 0.3 µM, first compound 0.0316 µM
[11] = second compound 0.3 µM, first compound 0.1 µM
[12] = second compound 0.949 µM, first compound 0.000316 µM
[13] = second compound 0.949 µM, first compound 0.001 µM
[14] = second compound 0.949 µM, first compound 0.00316 µM
[15] = second compound 0.949 µM, first compound 0.01 µM
[16] = second compound 0.949 µM, first compound 0.0316 µM
[17] = second compound 0.949 µM, first compound 0.1 µM
[18] = second compound 3 µM, first compound 0.000316 µM
[19] = second compound 3 µM, first compound 0.001 µM
[20] = second compound 3 µM, first compound 0.00316 µM
[21] = second compound 3 µM, first compound 0.01 µM
[22] = second compound 3 µM, first compound 0.0316 µM
[23] = second compound 3 µM, first compound 0.1 µM
[24] = second compound 9.49 µM, first compound 0.000316 µM
[25] = second compound 9.49 µM, first compound 0.001 µM
[26] = second compound 9.49 µM, first compound 0.00316 µM
[27] = second compound 9.49 µM, first compound 0.01 µM
[28] = second compound 9.49 µM, first compound 0.0316 µM
[29] = second compound 9.49 µM, first compound 0.1 µM
[30] = second compound 30 µM, first compound 0.000316 µM
[31] = second compound 30 µM, first compound 0.001 µM
[32] = second compound 30 µM, first compound 0.00316 µM
[33] = second compound 30 µM, first compound 0.01 µM
[34] = second compound 30 µM, first compound 0.0316 µM
[35] = second compound 30 µM, first compound 0.1 µM
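Also: spheroids exposed to drugs for seven days before readout.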
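For viability, T/C in this document: 100% = DMSO vehicle control viability.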

Structure (SMILES): COC1CC2CCC(C)C(O)(O2)C(=O)C(=O)N2CCCCC2C(=O)OC(C(C)CC2CCC(OCCO)C(OC)C2)CC(=O)C(C)C=C(C)C(O)C(OC)C(=O)C(C)CC(C)C=CC=CC=C1C (stereo unspecified) + CC(C)NCC(C(=O)N1CCN(c2ncnc3c2C(C)CC3O)CC1)c1ccc(Cl)cc1
IC50 [1]: > 0.1 µM
IC50 [2]: > 0.1 µM
IC50 [3]: > 0.1 µM
IC50 [4]: > 0.1 µM
IC50 [5]: < 0.000316 µM
viability, T/C [6]: 118%
viability, T/C [7]: 95.9%
viability, T/C [8]: 77.3%
viability, T/C [9]: 76%
viability, T/C [10]: 82.4%
viability, T/C [11]: 65.5%
viability, T/C [12]: 79.4%
viability, T/C [13]: 75.1%
viability, T/C [14]: 79.8%
viability, T/C [15]: 79.7%
viability, T/C [16]: 89%
viability, T/C [17]: 86.7%
viability, T/C [18]: 97.8%
viability, T/C [19]: 98.3%
viability, T/C [20]: 93.9%
viability, T/C [21]: 80.9%
viability, T/C [22]: 75.7%
viability, T/C [23]: 76.2%
viability, T/C [24]: 78.3%
viability, T/C [25]: 84.5%
viability, T/C [26]: 78.6%
viability, T/C [27]: 68.3%
viability, T/C [28]: 60.9%
viability, T/C [29]: 60.6%
viability, T/C [30]: 46.4%
viability, T/C [31]: 42.2%
viability, T/C [32]: 33.8%
viability, T/C [33]: 26.7%
viability, T/C [34]: 31.2%
viability, T/C [35]: 32.4%

Structure (SMILES): Cn1cnc2c(F)c(Nc3ccc(Br)cc3Cl)c(C(=O)NOCCO)cc21 + CC(C)NCC(C(=O)N1CCN(c2ncnc3c2C(C)CC3O)CC1)c1ccc(Cl)cc1
IC50 [1]: 0.0257 µM
IC50 [2]: < 0.00949 µM
IC50 [3]: < 0.00949 µM
IC50 [4]: 0.0202 µM
IC50 [5]: < 0.00949 µM
viability, T/C (second compound 0.3 µM, first compound 0.00949 µM): 64.4%
viability, T/C (second compound 0.3 µM, first compound 0.03 µM): 42.6%
viability, T/C (second compound 0.3 µM, first compound 0.0949 µM): 36.7%
viability, T/C (second compound 0.3 µM, first compound 0.3 µM): 38.3%
viability, T/C (second compound 0.3 µM, first compound 0.949 µM): 27.7%
viability, T/C (second compound 0.3 µM, first compound 3 µM): 20.4%
viability, T/C (second compound 0.949 µM, first compound 0.00949 µM): 48.9%
viability, T/C (second compound 0.949 µM, first compound 0.03 µM): 38.9%
viability, T/C (second compound 0.949 µM, first compound 0.0949 µM): 28.5%
viability, T/C (second compound 0.949 µM, first compound 0.3 µM): 20.9%
viability, T/C (second compound 0.949 µM, first compound 0.949 µM): 15.8%
viability, T/C (second compound 0.949 µM, first compound 3 µM): 5.06%
viability, T/C (second compound 3 µM, first compound 0.00949 µM): 44.8%
viability, T/C (second compound 3 µM, first compound 0.03 µM): 38.5%
viability, T/C (second compound 3 µM, first compound 0.0949 µM): 28.6%
viability, T/C (second compound 3 µM, first compound 0.3 µM): 25%
viability, T/C (second compound 3 µM, first compound 0.949 µM): 14.1%
viability, T/C (second compound 3 µM, first compound 3 µM): 5.64%
viability, T/C (second compound 9.49 µM, first compound 0.00949 µM): 61%
viability, T/C (second compound 9.49 µM, first compound 0.03 µM): 45%
viability, T/C (second compound 9.49 µM, first compound 0.0949 µM): 29%
viability, T/C (second compound 9.49 µM, first compound 0.3 µM): 21.3%
viability, T/C (second compound 9.49 µM, first compound 0.949 µM): 13.5%
viability, T/C (second compound 9.49 µM, first compound 3 µM): 5.67%
viability, T/C (second compound 30 µM, first compound 0.00949 µM): 40.2%
viability, T/C (second compound 30 µM, first compound 0.03 µM): 21.9%
viability, T/C (second compound 30 µM, first compound 0.0949 µM): 17.9%
viability, T/C (second compound 30 µM, first compound 0.3 µM): 10%
viability, T/C (second compound 30 µM, first compound 0.949 µM): 3.77%
viability, T/C (second compound 30 µM, first compound 3 µM): 1.5%

Structure (SMILES): CCCS(=O)(=O)Nc1ccc(F)c(C(=O)c2c[nH]c3ncc(-c4ccc(Cl)cc4)cc23)c1F
viability, T/C (compound 0.316 µM): 77.5% and 89.5%
viability, T/C (compound 1 µM): 89% and 87.9%
viability, T/C (compound 3.16 µM): 132% and 116%
viability, T/C (compound 10 µM): 149% and 164%
viability, T/C (compound 31.6 µM): 165% and 24.2%
viability, T/C (compound 100 µM): 187% and 232%
IC50 (curve of compound): > 100 µM

Structure (SMILES): CC(C)n1nc(-c2ccc3oc(N)nc3c2)c2c(N)ncnc21 + CC(C)NCC(C(=O)N1CCN(c2ncnc3c2C(C)CC3O)CC1)c1ccc(Cl)cc1
IC50 [1]: 0.032 µM
IC50 [2]: 0.0349 µM
IC50 [3]: 0.0177 µM
IC50 [4]: 0.0086 µM
IC50 [5]: 0.000516 µM
viability, T/C [6]: 106%
viability, T/C [7]: 96.9%
viability, T/C [8]: 85%
viability, T/C [9]: 60.4%
viability, T/C [10]: 54.8%
viability, T/C [11]: 36.5%
viability, T/C [12]: 78.3%
viability, T/C [13]: 69.3%
viability, T/C [14]: 65.7%
viability, T/C [15]: 66.9%
viability, T/C [16]: 49.6%
viability, T/C [17]: 36%
viability, T/C [18]: 83.5%
viability, T/C [19]: 77.8%
viability, T/C [20]: 84.8%
viability, T/C [21]: 62.3%
viability, T/C [22]: 37.6%
viability, T/C [23]: 28.2%
viability, T/C [24]: 110%
viability, T/C [25]: 102%
viability, T/C [26]: 79.2%
viability, T/C [27]: 44.2%
viability, T/C [28]: 29.1%
viability, T/C [29]: 19.3%
viability, T/C [30]: 52.1%
viability, T/C [31]: 47.1%
viability, T/C [32]: 37.5%
viability, T/C [33]: 17.1%
viability, T/C [34]: 10.4%
viability, T/C [35]: 9.55%

More lines, main results first:

IC50 (curve of compound): 0.0472 µM and 0.0652 µM
Structure (SMILES): CC(C)n1nc(-c2ccc3oc(N)nc3c2)c2c(N)ncnc21
viability, T/C (compound 0.000316 µM): 107% and 99.8%
viability, T/C (compound 0.001 µM): 89.1% and 102%
viability, T/C (compound 0.00316 µM): 80.7% and 95.7%
viability, T/C (compound 0.01 µM): 79.8% and 95.6%
viability, T/C (compound 0.0316 µM): 51.6% and 63.9%
viability, T/C (compound 0.1 µM): 39% and 41.8%

IC50 (curve of compound): 2.68 µM and 1.74 µM
Structure (SMILES): Cc1nc(NC(=O)N2CCCC2C(N)=O)sc1-c1ccnc(C(C)(C)C(F)(F)F)c1 (stereo unspecified)
viability, T/C (compound 0.0316 µM): 90.1% and 88.9%
viability, T/C (compound 0.1 µM): 88.6% and 71.4%
viability, T/C (compound 0.316 µM): 77.4% and 65.2%
viability, T/C (compound 1 µM): 62.1% and 51.6%
viability, T/C (compound 3.16 µM): 49.1% and 47.6%
viability, T/C (compound 10 µM): 35.7% and 40.8%
